Results: patent publication US20250145715A1, “B7-H3 TARGETING FUSION PROTEINS AND METHODS OF USE THEREOF” (GT Biopharma, Inc., priority 2021, published 2025)
Entries after “also recorded” stand apart in the source; their conditions may differ.

How the values were obtained:
[1] = tested on: NCI-H460 large cell lung cancer cells; assay: NK cell CD107a / IFNγ flow cytometry against NCI-H460; format: cell-based, human; settings: normal donor and lung cancer patient samples, vs controls
Text: FIGS. 24A-24F illustrate that B7-H3 TriKE enhances NK cell function against lung tumor targets. FIG. 24A is a graph showing pooled analysis of proportion of NK cells from healthy donors expressing CD107a+ against A549(N=6) tumor targets. FIG. 24B is a graph showing pooled analysis of proportion of NK cells from healthy donors expressing IFNγ against A549(N=6) tumor targets. FIG. 24C is a graph showing pooled analysis of proportion of NK cells from healthy donors expressing CD107a+ against NCI-H322 (N=5) tumor targets. FIG. 24D is a graph showing pooled analysis of proportion of NK cells from healthy donors expressing IFNγ against NCI-H322 (N=5) tumor targets. FIG. 24E is a graph showing pooled proportion of NK cells from healthy donors (black bars) or lung cancer patients (white bars) expressing CD107a+ against NCI-H460 (N=7). FIG. 24F is a graph showing pooled proportion of NK cells from healthy donors (black bars) or lung cancer patients (white bars) expressing IFNγ against NCI-H460 (N=7). ** p<0.01, *** p<0.001, and **** p<0.0001.
ADCC was measured in a flow cytometry assay by evaluating degranulation via CD107a (lysosomal-associated membrane protein LAMP-1) and intracellular IFNγ production. […] Samples were washed and evaluated in an LSRII flow cytometer (BD Biosciences, San Jose, CA, USA). […]

[2] = tested on: T cells (CD56−CD3+); assay: T cell proliferation in PBMCs, CellTrace Violet dilution; format: cell-based, human; settings: 7 days
Protocol: FIGS. 2A-2H illustrates that cam1615B7-H3 TriKE induces potent, and specific, natural killer (NK) cell proliferation. Peripheral blood mononuclear cells (PBMCs) were CellTrace Violet labeled and incubated for seven days at 5 nM equimolar concentrations of rhIL-15 or cam1615B7-H3 TriKE. On day 7, the cells were harvested and stained for flow cytometric evaluation. […] FIG. 2B is a graph illustrating pooled data showing the overall proportion of NK cells that proliferated. FIG. 2C is a graph illustrating pooled data showing the proportion of NK cells that highly proliferated (measured as proliferation beyond three divisions). FIG. 2D is a graph illustrating pooled data showing NK cell counts in the cultures (N=9). FIG. 2E is a representative histogram showing T cell (CD56− CD3+) proliferation. FIG. 2F is a graph illustrating pooled data showing the overall proportion of T cells proliferated. FIG. 2G is a graph illustrating pooled data showing the proportion of T cells highly proliferated. FIG. 2H is a graph illustrating pooled data showing T cell counts in the cultures (N=9). * p<0.05, ** p<0.01, *** p<0.001.
The wild-type IL-15 moiety in the cam1615B7-H3 TriKE was designed to induce targeted delivery of a proliferative signal to NK cells. To test this, proliferation assays evaluating dilution of a CellTrace dye over a 7-day period were carried out on PBMCs treated with no treatment (NT), monomeric rhIL-15 (IL15), or the TriKE (cam1615B7-H3). At the end of the seven days, cells were harvested and proliferation was evaluated by gating on CD56+CD3− cells. […] Since IL-15 acts on both NK cells and T cells, specificity was evaluated next by gating on T cells (CD56-CD3+).
To measure the ability of the TriKE to specifically induce NK cell expansion via the IL-15 moiety, PBMCs from healthy donors were labeled with CellTrace Violet Proliferation Dye (Invitrogen, Carlsbad, CA, USA) according to kit specifications. After staining, cells were cultured with TriKEs at noted concentrations, or equimolar concentrations of controls, and incubated in a humidified atmosphere containing 5% CO2 at 37° C. for seven days. Cells were harvested, stained for viability with Live/Dead reagent (Invitrogen, Carlsbad, CA, USA) and surface stained for anti-CD56 PE/Cy7 (Biolegend, San Diego, CA, USA) and anti-CD3 PE-CF594 (BD Biosciences, Franklin Lakes, NJ, USA) to gate on the viable CD56+ CD3− NK cell population or the CD56-CD3+ T cell population. Data analysis was performed using FlowJo software (FlowJo LCC, version 7.6.5, Ashland, OR, USA).

For “cam1615B7-H3: second-generation TriKE: humanized camelid anti-CD16 VHH, human wild-type IL-15, anti-B7-H3 mAb 376.96 scFv; SEQ ID NO:1”, the “NK cell function against NCI-H460” value [1] was “strongly increased NK cell function”, the “overall T cell proliferation” value ([2]; 5 nM equimolar, listed as cam1615B7-H3 TriKE) was “Minimal T cell proliferation; also recorded: some induction of overall T cell proliferation” and the “T cell numbers in culture” value ([2]; 5 nM, vs untreated) was “did not differ between the untreated and TriKE-treated groups”. The “T cells robustly proliferating (past three divisions)” value ([2]; 5 nM, vs untreated) was “significantly less proliferation than the untreated group”.
